Test results as given in paper PMC7767053, “Functional Analysis of Odorant-Binding Proteins 12 and 17 from Wheat Blossom Midge Sitodiplosis mosellana Géhin (Diptera: Cecidomyiidae)” (Insects, 2020).
Read-outs that look alike come from different tables or passages of the source.

Legend:
[1] = target: SmosOBP12 (Sitodiplosis mosellana, UniProt A0A346RTY7); assay: Fluorescence competitive binding assay with 1-NPN probe, recombinant SmosOBP12; conditions: for Ki: calculated from IC50, Ki = [IC50]/(1 + [1-NPN]/K1-NPN); for binding to SmosOBP12 (in words): fluorescence competitive binding
SmosOBP12, sequence (A0A346RTY7 entry or part of it): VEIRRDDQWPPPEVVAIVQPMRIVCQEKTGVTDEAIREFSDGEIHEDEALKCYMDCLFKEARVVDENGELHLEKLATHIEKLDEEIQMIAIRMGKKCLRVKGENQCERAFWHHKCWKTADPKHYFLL
Protocol: (§1) To determine binding affinities of SmosOBP12 and SmosOBP17 to host plant volatile compounds, fluorescence competitive binding assays were conducted using 1-N-phenyl-naphthylamine (1-NPN) as the fluorescent probe. Twenty-eight volatile compounds from winter wheat (Table 2) were selected based on our previous research. Both the probe and candidate ligands were dissolved in chromatographic-grade methanol to obtain 1 mM stock solutions, whereas recombinant SmosOBPs were diluted in 20 mM Tris-HCl (pH 7.4) to 2 μM. Fluorescence intensity was detected on an F-4600 fluorescence spectrophotometer (Hitachi, Tokyo, Japan) with a 1 cm light path quartz cuvette. Slits of both excitation and emissions were 10 nm in width. The probe was excited at 337 nm, and emission spectra were recorded between 370 and 550 nm.
(§2) Affinities of SmosOBPs to tested volatile ligands were measured by competition assays: to the 1 mL solution containing 2 μM recombinant protein and 2 μM 1-NPN, 1 mM solution of each putative volatile ligand (in a 2 µL aliquot) was added to final concentrations of 2–14 μM for SmosOBP12 and 2–40 μM for SmosOBP17, respectively. Maximal fluorescence intensities were plotted against ligand concentrations. Data were obtained from three independent measurements.
(§3) The Kd value was calculated using GraphPad Prism 5 (GraphPad Software Inc., La Jolla, CA, USA) via nonlinear regression for a unique site of binding. The inhibition constant (Ki) of each ligand competitor was calculated from the corresponding IC50 value (the concentration of competitor displacing 50% of initial fluorescence intensity) according to the equation: Ki = [IC50]/(1 + [1-NPN]/K1-NPN), where [1-NPN] is the free concentration of 1-NPN, and K1-NPN is the dissociation constant of the SmosOBPs/1-NPN complex.

[2] = target: SmosOBP17 (Sitodiplosis mosellana, UniProt A0A346RTY9); assay: Fluorescence competitive binding assay with 1-NPN probe, recombinant SmosOBP17; conditions: for Ki: calculated from IC50, Ki = [IC50]/(1 + [1-NPN]/K1-NPN); for binding to SmosOBP17 (in words): fluorescence competitive binding
SmosOBP17, sequence (A0A346RTY9 entry or part of it): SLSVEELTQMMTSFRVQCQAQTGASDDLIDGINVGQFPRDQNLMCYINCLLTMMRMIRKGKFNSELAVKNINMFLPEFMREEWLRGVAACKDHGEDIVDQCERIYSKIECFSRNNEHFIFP
Protocol: as §1, §2, §3

[3] = displacement of 1-NPN, 2 μM protein, 2 μM 1-NPN, ligand 2–14 μM, three independent measurements, read-out: SmosOBP12 IC50
[4] = displacement of 1-NPN, 2 μM protein, 2 μM 1-NPN, ligand 2–40 μM, three independent measurements, read-out: SmosOBP17 IC50

## c1ccc(Nc2cccc3ccccc23)cc1 [1-NPN, 1-N-phenyl-naphthylamine, reference compound]
[1]; 2 µM protein titrated with 1-NPN 0–24 µM, read-out: dissociation constant (Kd) of SmosOBP12 with 1-NPN
  Kd: 4.26 µM
[2]; 2 µM protein titrated with 1-NPN 0–24 µM, read-out: dissociation constant (Kd) of SmosOBP17 with 1-NPN
  Kd: 3.02 µM

## CCCCC(CC)CO (stereo not shown) [2-Ethyl hexanol]
[1]; read-out: SmosOBP12 Ki
  Ki: 6.36 ± 0.25 µM
[1]; [3]
  IC50: 7.86 ± 0.31 µM
[2]
  Ki: > 30 µM
  binding to SmosOBP17 (in words): did not bind
[2]; [4]
  IC50: > 40 µM

## CCCCC(C)=O [2-Hexanone]
[1]
  IC50: 12.66 ± 0.08 µM
[1]; SmosOBP12 Ki
  Ki: 10.25 ± 0.06 µM
[2]
  IC50: > 40 µM

## CCCCCCCCCCCC(C)=O [2-Tridecanone]
[1]; read-out: SmosOBP12 Ki
  Ki: > 11.3 µM
[1]; [3]
  IC50: > 14 µM
[1]
  binding to SmosOBP12 (in words): did not show any affinity
[2]
  Ki: > 30 µM
  binding to SmosOBP17 (in words): did not show any affinity
[2]; [4]
  IC50: > 40 µM

## CCCC(=O)CC [3-Hexanone]
[1]; read-out: SmosOBP12 Ki
  Ki: 6.26 ± 0.03 µM
[1]; [3]
  IC50: 7.74 ± 0.04 µM
[2]
  Ki: 27.87 ± 0.04 µM
[2]; [4]
  IC50: 37.1 ± 0.06 µM

## CCCCC(=O)CCCC [5-Nonanone]
[1]; read-out: SmosOBP12 Ki
  Ki: 6.72 ± 0.1 µM
[1]; [3]
  IC50: 8.32 ± 0.14 µM
[2]; [4]
  IC50: > 40 µM

## CCCCCCCCCCCC=O [Dodecanal]
[1]; read-out: SmosOBP12 Ki
  Ki: 8.06 ± 0.37 µM
[1]; [3]
  IC50: 9.94 ± 0.44 µM
[1]
  binding to SmosOBP12 (in words): bound
[2]
  Ki: > 30 µM
  binding to SmosOBP17 (in words): did not bind
[2]; [4]
  IC50: > 40 µM

## CCCCCCCCCCCC [Dodecane]
[1]; read-out: SmosOBP12 Ki
  Ki: > 11.3 µM
[1]; [3]
  IC50: > 14 µM
[2]
  Ki: > 30 µM
[2]; [4]
  IC50: > 40 µM

## CCCCCCOC(=O)CC [Hexyl propionate]
[1]; read-out: SmosOBP12 Ki
  Ki: 5.9 ± 0.12 µM
[1]; [3]
  IC50: 7.28 ± 0.16 µM

## CC(=O)OCCCCCC(C)C [Isooctyl acetate]
[1]; read-out: SmosOBP12 Ki
  Ki: > 11.3 µM
[1]; [3]
  IC50: > 14 µM
[1]
  binding to SmosOBP12 (in words): did not show any affinity
[2]
  Ki: > 30 µM
  binding to SmosOBP17 (in words): did not show any affinity
[2]; [4]
  IC50: > 40 µM

## CCCCCCCCCCCCCCC [Pentadecane]
[1]; read-out: SmosOBP12 Ki
  Ki: > 11.3 µM
[1]; [3]
  IC50: > 14 µM
[2]
  Ki: > 30 µM
[2]; [4]
  IC50: > 40 µM

## CCCCCOC(=O)CCCC [Pentyl pentanoate]
[1]; read-out: SmosOBP12 Ki
  Ki: 4.24 ± 0.03 µM
[1]; [3]
  IC50: 5.23 ± 0.01 µM
[2]; [4]
  IC50: > 40 µM

## CCCCCCCCCCCCC [Tridecane]
[1]; read-out: SmosOBP12 Ki
  Ki: > 11.3 µM
[1]; [3]
  IC50: > 14 µM
[2]
  Ki: > 30 µM
[2]; [4]
  IC50: > 40 µM

## CCCCCCCCCCCO [Undecanol]
[1]; read-out: SmosOBP12 Ki
  Ki: 4.39 ± 0.02 µM
[1]; [3]
  IC50: 5.43 ± 0.03 µM
[2]; [4]
  IC50: > 40 µM

## CC1=CC[C@@]23CC1C(C)(C)[C@@H]2CC[C@H]3C [α-Cedrene]
[1]; read-out: SmosOBP12 Ki
  Ki: > 11.3 µM
[1]; [3]
  IC50: > 14 µM
[1]
  binding to SmosOBP12 (in words): did not show any affinity
[2]
  Ki: > 30 µM
  binding to SmosOBP17 (in words): did not show any affinity
[2]; [4]
  IC50: > 40 µM

## C/C1=C\CC/C(C)=C/CC(C)(C)/C=C/C1 [α-Humulene]
[1]; read-out: SmosOBP12 Ki
  Ki: > 11.3 µM
[1]; [3]
  IC50: > 14 µM
[1]
  binding to SmosOBP12 (in words): did not show any affinity
[2]
  Ki: > 30 µM
  binding to SmosOBP17 (in words): did not show any affinity
[2]; [4]
  IC50: > 40 µM

## CC1=CCC2CC1C2(C)C (stereo not drawn) [α-Pinene]
[1]
  IC50: 7.63 ± 0.06 µM
[1]; SmosOBP12 Ki
  Ki: 6.17 ± 0.04 µM
[2]
  IC50: > 40 µM
  binding to SmosOBP17 (in words): did not bind

## C=C1CC/C=C(\C)CC[C@@H]2[C@@H]1CC2(C)C [β-Caryophyllene]
[1]
  IC50: > 14 µM
  binding to SmosOBP12 (in words): did not show any affinity
[1]; SmosOBP12 Ki
  Ki: > 11.3 µM
[2]
  IC50: > 40 µM
  binding to SmosOBP17 (in words): did not show any affinity
